{
  "source": "patent US6444698B1",
  "about": "“Application of 2,3,7,8-tetrachlorodibenzo-para-dioxin (TCDD) as a promoter blocker of cancer” (priority 1998, dated 2002)",
  "key": {"Sprague-Dawley rats [1]": {"test_system": "Sprague-Dawley rats", "test": "Kociba lifetime rodent feeding study", "assay_type": "in vivo, rat", "experimental": "EPA has sought to regulate dioxin as a carcinogen on three occassions. […] Kociba et al., Toxicol. Appl. Pharmacol. 46, 279-303 (1978). […] Kociba et al. (1978); U.S. EPA (1985); and U.S. EPA (1994).\nKociba et al, (1978); U.S. EPA (1985 and 1994).\nTo develop the Invention further, cross species comparisons are performed when no second epidemiology report is available to test the effect of TCDD exposure on women. […] Kayajanian, Regul. Toxicol. Pharmacol. 26, 134-137 (1997)."}, "[2]": {"test_system": "residential population of men and women", "test": "Seveso Study, cancer incidence in residential population exposed to TCDD", "assay_type": "in vivo, human", "description": "(§1) In addition to published and unpublished epidemiology data from the NIOSH Report (Fingerhut et al. (1990)), additional NIOSH Life Table records (LT20406 (1990)), and the Steenland et al. article (1999), the Inventor relies on Bertazzi et al.'s (Epidemiol. 4, 398-406 (1993)) cancer incidence data presentation on a residential population of men and women exposed to the lowest levels of TCDD as a result of a chemical plant explosion near Seveso, Italy, and the Inventor's own analysis of cancer incidence and body burden data in the Operation Ranch Hand (ORH) airmen exposed to TCDD as a result of service in Southeast Asia during the Vietnam War. None of the NIOSH and Seveso papers cited above claim that TCDD acts as an anti-carcinogen. The Air Force Scientists charged with developing the ORH Study also fail to observe TCDD as an anti-carcinogen. Ketchum et al. Amer. J. Epidem. 149, 630-639 (1999).\n(§2) The Seveso Study (Bertazzi et al. (1993)) is a report on cancer incidence and cancer incidence changes in the first ten years following the population's exposure to TCDD and other chemicals. Over the course of these ten years, one expects not to register the carcinogenic effects of any chemicals acting as cancer initiators and to include any effects attributable to TCDD discernible within ten years, like promotion or promotion blocking. The first ten years of the lifetime NIOSH Study offer the same advantage. Fingerhut et al. (1990).\nFor a limited number of narrow cancer classifications, Bertazzi et al. (1993) has provided cancer incidence data stratified in five year intervals both for publication and as a courtesy to the Inventor. Kayajanian, Ecotox. Environ. Safety 42, 103-109 (1999). Fingerhut et al. (1990) also published five year cancer occurrence observations for total cancers. […] This pattern of cancer incidence reduction in the second five year interval is what one would expect if TCDD acted as a promoter blocker of the enumerated individual cancer classifications and a sufficient number of other cancers to generate a significant total cancer incidence reduction.\nThe significant individual and total cancer reductions the Inventor noted from the Seveso data, whether stratified or not (Bertazzi et al. (1993)) are associated with median levels of 48 ppt TCDD. Bertazzi et al., Amer. J. Epidem. 153, 1031-1043 (2001). Measurement of TCDD levels include both men and women."}, "[3]": {"test_system": "male workers in 12 chemical plants", "test": "NIOSH Study of chemical plant workers, cancer occurrence", "assay_type": "in vivo, human", "description": "In 1994, EPA sought to regulate TCDD as a “probable” human carcinogen, using a population of 5280 male workers in 12 chemical plants, each of whom was exposed to contaminant levels of TCDD and some mix of 1000 unidentified other chemicals. Fingerhut et al. (1990). Fingerhut compared the cancer incidence in the plant workers to that expected in a national reference, and EPA concluded all the cancer incidence increases noted by Fingerhut were caused by the TCDD exposure and none were caused by exposures to other chemicals. U.S. EPA (1994). EPA's Science Advisory Board rejected the Agency's TCDD cancer claims. U.S. EPA Science Advisory Board, Review of Draft Documents: A Second Look at Dioxin (1995).\nas §2\nOne of the plants (Midland) in the NIOSH Report has workers who reproduce the signature of individual cancer reductions and increases the Inventor observed in Seveso low exposure men: reductions in lung, primary liver (measured in Midland as liver) and multiple myeloma, which collectively are significant; and increases in STS and NHL, which individually are significant. The Seveso signature pattern of cancer incidence changes is present even though workers in Midland and the other 11 chemical plants were exposed to confounding chemicals which might have masked or diminished the extent of pattern confirmation. LT20406 (1990). From Steenland et al. (1999), one can estimate the TCDD level associated with the Midland plant wotkers as 105 ppt above background, or between 105 and 115 ppt.\nThe specific and total cancer reductions noted in the NIOSH, Seveso, and ORH studies can be tied to specific dioxin body burden levels measured in serum. Reading Steenland et al. (1999) and Fingerhut et al. (1990) together, one can estimate a range from 3 to 10,000 ppt extra TCDD in serum in eight of the 12 NIOSH plante worker cohorts. […] Midland workers, who show the Seveso pattern of reductions of specific cancers, had 105 ppt TCDD above background, which is assumed to be 0 to 10 ppt."}, "[4]": {"test_system": "Operation Ranch Hand (ORH) airmen", "test": "Operation Ranch Hand (ORH) cancer incidence and body burden analysis", "assay_type": "in vivo, human", "description": "as §1\nThe ORH cancer incidence data collected over 30 years has particular value, because one may compute the cancer incidence effects associated with military service in Southeast Asia in internal cohorts unexposed or virtually unexposed to TCDD and distinguish them from an internal cohort of airmen exposed to TCDD within a well calibrated body burden range.\nKayajanian, Ecotox. Environ. Safety 46, 103-109 (2000); and Kayajanian, Ecotox. Environ. Safety (In press, 2001).\nKayajanian (2000)(In press, 2001). One standout cancer reduction is associated with an even lower TCDD body burden level: prostate cancer in black veterans is highest at non detect TCDD levels of less than 1.25 ppt; it is reduced at body burdens between 1.25 and 4.0 ppt, and lowest above 4.00 ppt, The pattern of prostate cancer reduction in black men is significant. Kayajanian, (In press, 2001)."}, "Sprague-Dawley rats [5]": {"test_system": "Sprague-Dawley rats", "conditions": "cited from earlier work"}, "mouse skin": {"test_system": "mouse skin", "conditions": "cited from earlier work"}, "[6]": {"test_system": "residential population of men and women", "conditions": "cited from earlier work"}, "[7]": {"test_system": "male workers in 12 chemical plants", "conditions": "most highly TCDD-exposed members of the NIOSH workforce (Steenland 1999); cited from earlier work"}, "[8]": {"test_system": "Operation Ranch Hand (ORH) airmen", "conditions": "cited from earlier work"}, "[9]": {"conditions": "tritiated TCDD ingested in corn oil, volunteer; cited from earlier work"}, "[10]": {"molecular_target": "T1, aryl hydrocarbon (Ah) receptor (Homo sapiens, UniProt P35869)", "T1 sequence (P35869 11-848)": "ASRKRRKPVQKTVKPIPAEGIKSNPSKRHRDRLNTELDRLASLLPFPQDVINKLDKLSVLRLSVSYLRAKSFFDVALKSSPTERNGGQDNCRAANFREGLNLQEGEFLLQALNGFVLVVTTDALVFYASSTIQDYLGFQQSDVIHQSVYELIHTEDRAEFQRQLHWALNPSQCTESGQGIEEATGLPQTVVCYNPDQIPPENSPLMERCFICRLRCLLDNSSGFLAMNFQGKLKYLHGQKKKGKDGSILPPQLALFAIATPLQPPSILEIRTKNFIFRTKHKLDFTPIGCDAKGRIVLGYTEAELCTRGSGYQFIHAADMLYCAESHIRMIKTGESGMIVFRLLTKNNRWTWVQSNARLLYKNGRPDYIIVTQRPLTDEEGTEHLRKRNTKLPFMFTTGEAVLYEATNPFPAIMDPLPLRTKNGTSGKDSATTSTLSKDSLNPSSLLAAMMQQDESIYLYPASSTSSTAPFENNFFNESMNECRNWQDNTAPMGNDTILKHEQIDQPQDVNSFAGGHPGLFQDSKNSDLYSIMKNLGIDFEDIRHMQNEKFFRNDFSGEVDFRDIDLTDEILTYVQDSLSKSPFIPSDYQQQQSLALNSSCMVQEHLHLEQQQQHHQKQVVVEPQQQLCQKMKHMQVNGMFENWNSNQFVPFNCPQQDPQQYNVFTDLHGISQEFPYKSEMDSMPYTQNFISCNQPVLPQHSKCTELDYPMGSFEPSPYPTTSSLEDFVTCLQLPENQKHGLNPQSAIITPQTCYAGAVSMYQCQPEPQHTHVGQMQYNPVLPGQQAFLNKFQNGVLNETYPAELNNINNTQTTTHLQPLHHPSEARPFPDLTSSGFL", "conditions": "cited from earlier work"}, "industrial cohorts": {"test_system": "industrial cohorts", "conditions": "cited from earlier work"}, "[11]": {"conditions": "low exposure cohorts, second five years compared to first five years"}},
  "note": "Values joined by “and” are separate entries in the source; they are usually repeats but may differ in a detail not shown here. Identical values can stand only once. “Also recorded” adds a separate entry of the source. Like-named read-outs stand apart in the source and are kept apart here.",
  "data": [
    {"smiles": "Clc1cc2c(cc1Cl)Oc1cc(Cl)c(Cl)cc1O2", "note": "[TCDD, 2,3,7,8-tetrachlorodibenzo-para-dioxin]", "values": [
      {"measurement": "total cancers", "setting": "Sprague-Dawley rats [1]; each sex, low and mid dose TCDD levels of 540 and 5100 ppt in liver tissue", "value": "significant reduction"},
      {"measurement": "total cancers", "setting": "Sprague-Dawley rats [1]; low dose female rats, p<0.01", "value": "significantly reduced"},
      {"measurement": "uterine cancers", "setting": "Sprague-Dawley rats [1]; low dose female rats, p<0.06", "value": "significantly reduced"},
      {"measurement": "liver cancer incidence", "setting": "Sprague-Dawley rats [1]; low dose, each sex, significant in the males", "value": "reduction"},
      {"measurement": "percentagewise cancer incidence reduction, male versus female rats", "setting": "Sprague-Dawley rats [1]; lowest study exposure", "value": "in male rats to a greater extent than in female rats"},
      {"measurement": "cancers at multiple tissue sites and overall", "setting": "Sprague-Dawley rats [1]; male and female rats, TCDD body burdens of 540 and 5100 ppt", "value": "reduction"},
      {"measurement": "lung and multiple myeloma cancer incidence in men", "setting": "[2]; compared to the outside reference over the entire ten year period", "value": "significantly or notably reduced"},
      {"measurement": "incidence of soft tissue sarcoma (STS) and non Hodgkins lymphoma (NHL)", "setting": "[2]; low exposure adults (men plus women), second five years compared to first five years", "value": "significantly increased"},
      {"measurement": "corpus uteri cancer incidence in women", "setting": "[2]; [11]", "value": "significant cancer incidence reduction"},
      {"measurement": "primary liver cancer incidence in men", "setting": "[2]; [11]", "value": "significant cancer incidence reduction"},
      {"measurement": "total cancer incidence in women", "setting": "[2]; [11]", "value": "significant cancer incidence reduction"},
      {"measurement": "percentagewise cancer incidence reduction, men versus women", "setting": "[2]; lowest study exposure", "value": "to a greater extent in men than in women"},
      {"measurement": "lung, primary liver (measured as liver) and multiple myeloma cancers", "setting": "[3]; Midland plant workers, collectively significant", "value": "reductions"},
      {"measurement": "STS and NHL", "setting": "[3]; Midland plant workers, individually significant", "value": "increases"},
      {"measurement": "TCDD level associated with the Midland plant workers", "setting": "[3]; including background", "value": "105-115 ppt"},
      {"measurement": "incidence of total cancers in men", "setting": "[3]; years 6-10 compared to years 1-5, Fingerhut Report", "value": "significantly less"},
      {"measurement": "total cancers other than skin", "setting": "[4]; all airmen, 50 ppt (mean body burden 50-100 ppt)", "value": "significant cancer incidence reductions; also recorded: significant non skin cancer reductions"},
      {"measurement": "prostate cancer in black veterans", "setting": "[4]; body burdens above 4.00 ppt", "value": "lowest"},
      {"measurement": "prostate cancer in black veterans", "setting": "[4]; body burdens between 1.25 and 4.0 ppt", "value": "reduced"},
      {"measurement": "skin cancer incidence", "setting": "[4]; non black airmen, 100 ppt (mean body burden 50-100 ppt)", "value": "significant cancer incidence reductions; also recorded: significant skin cancer reductions"},
      {"measurement": "prostate cancer in black veterans", "setting": "[4]; non detect TCDD levels of less than 1.25 ppt", "value": "highest"},
      {"measurement": "mean TCDD body burden levels at which significant cancer incidence reductions are observed", "setting": "[4]; skin and total cancers other than skin", "value": "50-100 ppt"},
      {"measurement": "hepatocarcinogenicity", "setting": "Sprague-Dawley rats [5]; body burden level 25,400 ppt (Safe citing Kociba)", "value": "very hepatocarcinogenic"},
      {"measurement": "liver cancer incidence", "setting": "Sprague-Dawley rats [5]; high dose female Sprague-Dawley rats fed TCDD over a lifetime", "value": "significantly elevated"},
      {"measurement": "mammary and uterine cancers", "setting": "Sprague-Dawley rats [5]; high dose female, body burden level 25,400 ppt (Safe citing Kociba)", "value": "anti-carcinogenic"},
      {"measurement": "artificially elevated skin cancer incidence", "setting": "mouse skin; TCDD administered simultaneously with or a day after the skin cancer initiation step", "value": "No reduction"},
      {"measurement": "artificially elevated skin cancer incidence", "setting": "mouse skin; very high single dose administered one to five days prior to initiation, several mice strains", "value": "significantly reduces"},
      {"measurement": "total cancers", "setting": "[6]; Italian men from Seveso, pooled two highest exposed cohorts, over twenty years (Bertazzi 2001)", "value": "significant increase"},
      {"measurement": "median TCDD level associated with significant individual and total cancer reductions", "setting": "[6]; men and women", "value": "48 ppt and 48.0 ppt"},
      {"measurement": "total cancers", "setting": "[7]", "value": "significant increase"},
      {"measurement": "mean TCDD level of airmen when they left Vietnam", "setting": "[8]", "value": 195.7, "unit": "ppt"},
      {"measurement": "label retention", "setting": "[9]", "value": 87, "unit": "%"},
      {"measurement": "binding to the aryl hydrocarbon (Ah) receptor", "setting": "[10]", "value": "preferentially binds"},
      {"measurement": "total cancer mortality", "setting": "industrial cohorts; most highly TCDD-exposed German herbicide chemical plant workers (Flesch-Janys 1995)", "value": "significant increase"},
      {"measurement": "total cancers", "setting": "industrial cohorts; separate studies of different industrial cohorts (Zober 1990, Manz 1991)", "value": "total cancer increase"}
    ]}
  ]
}
